Experimental data as given in patent EP0095833A2 (priority 1982, dated 1983).
Read-outs that look alike come from different tables or passages of the source.

How the values were obtained:
VSV [1] = assay type: cell-based
VSV [2] = assay type: cell-based; conditions: HeLa cells, Figure 2
VSV [3] = assay type: cell-based; conditions: 20 mM
VSV [4] = assay type: cell-based; remark: listed apart in the source
Vaccinia virus = assay type: cell-based
Polio virus = assay type: cell-based
VSV [5] = system: VSV
Reovirus III = assay type: cell-based
VSV [6] = assay type: cell-based; conditions: for Titer obtained (PFU/ml): pretreated for 2 hours, one-step growth (18 hours)
Sindbis virus = conditions: BHK-21 cells; 0.1 mM chloroquine or 10 µg of cytochalasin B for thirty minutes before infection; Sindbis virus 5,000 PFU; 30 or 60 minutes at room temperature; cited from earlier work
[7] = system: vesicular stomatitis virus; conditions: cited from earlier work
[8] = 20 mM NH4Cl from the second hour before infection to the eighteenth hour after, Figure 7 panel A
[9] = 20 mM NH4Cl from the second hour before inoculation to the seventh hour after, Figure 5 panel A
[10] = 20 mM, added from 2 hours before inoculation

## Cl.N [NH4Cl, ammonium chloride]
VSV [1]; 20 mM NH4Cl from immediately after inoculation to the eighteenth hour after, Figure 7 panel B
  infection (viral m RNAs and 42S mature RNA in cytoplasmic extracts): slight reduction
VSV [1]; [8]
  42S viral RNA in cytoplasmic extracts: do not contain
  viral m RNAs in cytoplasmic extracts: do not contain
VSV [1]; 20 mM NH4Cl from the second hour before infection to the sixth hour after, 18 hours after infection, Figure 6 panel B
  amount of 42S mature viral RNA in cytoplasmic extracts: lower than in untreated cells
VSV [1]; 20 mM NH4Cl from the second hour before infection to the sixth hour after, 18 hours after infection, versus untreated, Figure 6 panel B
  viral m RNAs (31S, 17S, 14.5S, 12S) in cytoplasmic extracts: more
VSV [1]; [9]
  complete virus (625S) in cytoplasmic extract: large amount
  viral cores (120s) in cytoplasmic extract: negligible amount
VSV [2]; 20 mM NH4Cl from 2 hours before inoculation, withdrawal at the sixth hour after inoculation
  lag period before rather normal viral RNA synthesis: 6 h
VSV [2]; 20 mM NH4Cl from 2 hours before to 18 hours after inoculation
  viral RNA synthesis: seriously reduced
VSV [2]; 20 mM NH4Cl only added after inoculation, until 18 hours
  viral RNA synthesis: strongly reduced
VSV [3]; added from 2 hours before inoculation
  development of VSV: completely inhibits
VSV [3]; in L, BHK, and BGM cells
  development of VSV, compared with Table I: Identical results
VSV [4]; treated from the second hour before inoculation to the eighteenth hour after, Figure 3 panel B
  viral cores and virions in supernatant: neither viral cores nor virions
VSV [4]; treated from the second hour before to the sixth hour after inoculation, 18 hours, versus untreated, Figure 3 panel A
  virions in supernatant: lower amount
VSV [4]; treated immediately after inoculation, 18 hours, versus untreated, Figure 3 panel B
  viral cores in supernatant: lower level
Vaccinia virus; [10]
  viral development of Vaccinia: No action
Vaccinia virus; L cells, Vaccinia virus, 20 mM NH4Cl from 2 hours before inoculation, end of one step growth
  Virions produced in infected 20mM NH4Cl* treated cells: 3.5 x 10^6PFU/ml
Polio virus; [10]
  viral development of Polio virus: No action
Polio virus; BGM cells, Polio virus, 20 mM NH4Cl from 2 hours before inoculation, end of one step growth
  Virions produced in infected 20mM NH4Cl* treated cells: 4.15 x 10^8PFU/ml
VSV [5]; 20 mM NH4Cl in PBS, incubated at 37°C, titrated at various times
  virucidal effect against VSV: no virucidal effect
Reovirus III
  development of Reovirus: completely inhibits
Reovirus III; 20 mM
  development of Reovirus III, compared with Table I: Identical results

## Cc1cc2nc3ccc(N(C)C)cc3nc2cc1N.Cl [Neutral Red]
VSV [5]; procedure of Example III, at these concentrations (70 µM and 100 µM)
  virucidal effect: no virucidal effect
VSV [6]; 70 µM Neutral Red
  Titer obtained (PFU/ml): 9.0 x 10^7 PFU/ml
VSV [6]; 100 µM (29 µg/ml)
  growth of VSV: completely inhibits
VSV [6]; 100 µM Neutral Red
  Titer obtained (PFU/ml): 0 PFU/ml

## CCN(CC)CCCC(C)Nc1ccnc2cc(Cl)ccc12 (centres unmarked) [chloroquine]
Sindbis virus
  internalization by endocytosis of the virus: either enhanced or took place normally

## C=C1[C@@H](C)[C@H]2[C@H](Cc3ccccc3)NC(=O)[C@]23OC(=O)/C=C/[C@H](O)CCC[C@@H](C)C/C=C/[C@H]3[C@@H]1O [cytochalasin B]
Sindbis virus
  internalization by endocytosis of the virus: blocked
[7]
  yields of VSV: the same as untreated (control) cells
